Consider three molecules from patent publication US10905750B2, “GRP78 antagonist that block binding of receptor tyrosine kinase orphan receptors as immunotherapy anticancer agents” (CREATIVE BIOTHERAPEUTICS, LLC, priority 2017, dated 2021).

Assay [1] concerns HT29 colon carcinoma cells. Nature of the assay: Tumor cell proliferation assay 72 hours, HT29. Type of assay: cell-based. On the procedure: (§1) For the proliferation assay, cells were plated in 96 well plates at approximately 3000 cells per well overnight. The media was removed and fresh media with 1% FBS containing 10 μg/ml GRP78 was added along with the GRP78 antagonists. The plates were incubated for 72 hours at 37 C in 8% CO2. After 72 hours, cell number was determined with a WST-8 cell proliferation kit (Sigma). […] The only tumor cell line tested to not be inhibited by GRP78 antagonists was HT29, a colon carcinoma cell line. From our previous data above, we know U87 and D54 have ROR1 expressed on their cell surfaces.

The next assay addresses T1, GRP78 (Homo sapiens, UniProt P11021).
T1 construct: purchased StressMarq
Put plainly: GRP78 ELISA, direct binding of biotin-labelled kringles. The note with it: FIG. 19A. From the text:
Recombinant K5-fragment biotin and Kr1 fragment-biotin were used for binding. Neutra-avidin-HRP was used to detect binding after washing with PBS.
To determine if ROR1 is expressed on immature dendritic cells, CD14^+ cells were isolated from human PBMCs and cultured in GM-CSF, and IL-4 for 7 days to produce immature DCs. […] This flow cytometry analysis supports the hypothesis that immature dendritic cells express ROR1 in which the ROR1 kringle domain binds to GRP78.
Comparison of GRP78 binding for the two kringle domains was performed by a GRP78 ELISA. GRP78 (StressMarq) (1 ug/ml@ 100 μl/well) was bound to a tissue culture coated 96 well plate overnight at 4° C. After washing 3× with PBS, the plates were blocked with superblock (Pierce) for 1 hour at room temperature. […] The plate was then washed 3× with PBS again and Neutra-avidin-HRP was added to the wells for 1 hour at room temperature. The wells were washed again with PBS and one step TMB (Pierce) was added to the wells with absorbance recorded after 30 minutes to measure kringle binding. […] To analyze these peptides for binding to GRP78, we used a 96 well competition binding assay. The assay consisted of binding GRP78 to a tissue coated 96 well plate as listed above. […] After the plate was washed, Neutra-avidin-HRP was added and bound K5 was measured by adding HRP substrate, TMB, as listed above.
(In general: ELISA stands for enzyme-linked immunosorbent assay.)

A further assay has as its system D54 glioma cells. Put plainly: Tumor cell proliferation assay 72 hours, D54. The class given is cell-based. As for the experimental part: as §1
The subject of the next assay is U87 glioma cells. Nature of the assay: Tumor cell proliferation assay 72 hours, U87. Type of assay: cell-based. As for the experimental part: as §1
Another assay deals with panel of tumor cells. Put plainly: Tumor cell proliferation assay 72 hours, whole panel. The class given is cell-based. The note with it: in words. On the procedure:
as §1

Assay [2] concerns GRP78 treated dendritic cells. Put plainly: Tolerogenic phenotype of GRP78 treated dendritic cells (flow cytometry, IL-10 ELISA). Type of assay: cell-based, human. The conditions noted are these: for maturity marker CD86 on DCs exposed to GRP78/LPS: FIG. 13; for activity for reversing the tolerogenic phenotype of dendritic cells induced by GRP78: dose dependent, in words; for potency in blocking B7H3 on DCs exposed to GRP78, relative to K5: flow cytometry, FIG. 9A. On the procedure: Consequently surface GRP78 binding on tumor cells leads to chemo-resistance and proliferation. […] Immature dendritic cells were differentiated from isolated CD14^+ myeloid cells with the addition of GM-CSF and IL-4 for 7 days. GRP78 (10 μg/ml) was added to the cells to produce a tolerogenic phenotype showing up regulation of PD-L1, B7H4, B7H3, IL-10 and down regulation of CD86. Therefore our GRP78 antagonists can potently block the activity of GRP78 on dendritic cells.
FIG. 9A-9C illustrates increasing amounts of the GRP78 antagonists result in blocking GRP78 which reduces checkpoint protein expression on DCs. A tolerogenic dendritic cell phenotype is induced by soluble GRP78 binding. Myeloid CD14+ cells were co-stimulated for 7 days with IL-4, and GMCSF. On day 5 LPS along with or without GRP78 and GRP78 antagonists were added. On day 8, dendritic cells were fixed and stained for flow cytometry. The percent of B7H3, PD-L1, CD86 was measured by flowcytometry and compared to GRP78 untreated dendritic cells.
To determine if GRP78 antagonists can block the tolerogenic phenotype of GRP78 treated dendritic cells, we differentiated immature dendritic cells. From 20 million human pooled PBMCs (AllCells), we isolated about 2.5 million CD14+ monocytes using positive selection with a pluribead CD14 kit (Pluriselect). […] From our multiple studies, we can isolate about 2.5 million CD14+ monocytes from 20 million PBMCs using positive selection with pluribeads (Pluriselect). […] On day 8, cells were fixed and aliquots stained at 4 C for various tolerogenic DC markers: PD-I([…]), B7H4, […], CD86, CD14, ROR1. Stained cells were analyzed byflow cytometry analysis. All antibodies for the DC markers were PE labeled from BD PharMingen. The cytokine, IL-10 (ENZO Life Sciences), was assayed by ELISA (Sigma). Negative controls wells were with GRP78 and positive controls are without GRP78 but with LPS. […] All of these antagonists decreased expression of PD-L1, B7H4, B7H3, and IL-10 from mature dendritic cells and increased expression of the maturity marker CD86 on dendritic cells (FIGS. 9A-9C).
Background: Flow cytometry measures light scatter and fluorescence of single cells or particles in a stream.

The subject of a further assay is 293 Kidney fibroblasts. Put plainly: Proliferation assay 72 hours, 293 kidney normal cells. The class given is cell-based, human. On the procedure: as §1
For assay [3], the system named is MDA231 breast carcinoma cells. Put plainly: Tumor cell proliferation assay 72 hours, MDA231. The class given is cell-based. On the procedure:
as §1

The test system of assay [4] is Calu 6 lung carcinoma cells. Put plainly: Tumor cell proliferation assay 72 hours, Calu 6. Type of assay: cell-based. On the procedure: as §1
Assay [5] relates to chemo-resistant colon cancer cells (DLD-1). Put plainly: WST-8 proliferation assay, DLD-1 (5 day). Type of assay: cell-based. The conditions noted are these: Homo sapiens, DLD-1, 120 h; GRP78 10 ug/ml, 5 days; read-out: Proliferation Inhibition (5 day) IC50, Colon Cancer DLD-1.
Assay [6] deals with mouse breast cancer cells, 4T1. Put plainly: WST-8 proliferation assay, 4T1 (5 day). Type of assay: cell-based. The conditions noted are these: 120 h, GRP78 10 ug/ml, 5 days, read-out: Proliferation Inhibition (5 day) IC50, Mouse Breast Cancer 4T1. (In general: Formazan colour is commonly taken as a measure of viable cells.)
The subject of assay [7] is BT549 human breast cancer cells. Nature of the assay: WST-8 proliferation assay, BT549 (5 day). The class given is cell-based. The note with it: BT-549, 120 h, GRP78 10 ug/ml, 5 days, read-out: Proliferation Inhibition (5 day) IC50, Breast Cancer BT549. As for the experimental part:
The inhibition effect of GRP78 antagonist on metastatic triple-negative, chemo-resistant BT549 cells was assessed using a proliferation assay.

In the next assay the target is T2, ROR1 binding to GRP78 (Homo sapiens, UniProt P11021).
T2 construct: purchased StressMarq; host or cells: ROR1 is endogenous, from D54 glioma cell lysate
Put plainly: Immunoprecipitation of ROR1 using GRP78-Biotin from D54 glioma cell lysate. The conditions noted are these: D54 glioma cell-surface lysate, 100 nM, FIG. 5. From the text: The use of GRP78/ROR1 antagonists to break immune tolerance for the treatment of resistant cancers represents a major shift in cancer therapies. Few, if any, current anti-cancer therapies have anti-angiogenic, anti-tumor and immune modulatory activities similar to modified ROR1, ROR2, and K5 kringle domains. To understand what pathways could be responsible for these activities in tumor and dendritic cells, we used GRP78 binding and crosslinking pull down studies against the cell surface proteome of D54 glioma cells and dendritic cells. We have identified that ROR1 and ROR2 as a cell GRP78 surface receptor.
Since the mechanism of action is inconclusive for soluble, surface bound GRP78, we decided to identify the surface receptor for GRP78 on glioma (D54) cells. Using GRP78 (StressMarq) labeled with Biotin (Sigma, Mix-n-Match), pull down experiments were performed. 2×10(6) D54 glioma cells were grown in a T25 cm flask with full DMEM media overnight. The next day the media was removed and the cells were washed with ice cold PBS. To the attached cells ice cold octyl-lysis buffer (Pierce detergent cell lysis kit) was added and the cells were scrapped off and incubated in a tube with gentle agitation at 4 C for 60 minute. The microcentrifuge tube was centrifuged at 12,000×g for 20 minutes. The supernatant was gently removed and placed on ice. […]

Where [8] appears, read: listed as Kr1(1-91 Active Zone)frag SEQ ID NO: 19.

Entries after “also recorded” stand apart in the source; their conditions may differ.

T2 sequence (P11021 19-654): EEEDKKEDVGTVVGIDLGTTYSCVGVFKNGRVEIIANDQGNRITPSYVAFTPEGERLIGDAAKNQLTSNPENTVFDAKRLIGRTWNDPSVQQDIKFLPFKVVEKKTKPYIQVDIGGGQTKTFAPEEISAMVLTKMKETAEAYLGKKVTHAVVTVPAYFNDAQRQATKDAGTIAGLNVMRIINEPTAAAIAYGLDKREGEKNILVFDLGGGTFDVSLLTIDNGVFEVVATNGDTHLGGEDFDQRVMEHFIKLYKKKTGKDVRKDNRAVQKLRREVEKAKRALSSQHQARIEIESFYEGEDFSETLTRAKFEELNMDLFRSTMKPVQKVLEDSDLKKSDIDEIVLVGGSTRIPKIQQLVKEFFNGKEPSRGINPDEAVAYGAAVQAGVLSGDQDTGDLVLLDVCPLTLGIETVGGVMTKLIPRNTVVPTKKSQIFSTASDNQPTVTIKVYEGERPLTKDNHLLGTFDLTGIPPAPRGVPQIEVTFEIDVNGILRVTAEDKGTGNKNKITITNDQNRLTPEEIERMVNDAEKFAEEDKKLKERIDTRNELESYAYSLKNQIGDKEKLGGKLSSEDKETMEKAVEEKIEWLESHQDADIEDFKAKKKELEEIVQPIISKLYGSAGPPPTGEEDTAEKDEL
T1 sequence (P11021 19-654, species assumed): as the sequence (P11021 19-654) above

Regarding “Kr1(1-91 Active Zone)frag SEQ ID NO:19: ROR1 kringle domain (amino acids 308-400 ROR1), expressed in 293T cells”, the “% Proliferation Inhibition” value in assay [1] (HT29, 0.1 μg/ml) was found to be 0 ± 8%; in assay [1] (HT29, 1 μg/ml), 10 ± 9%; in assay [1] (HT29, 10 μg/ml) it was 0 ± 5%; in the assay on D54 glioma cells (D54, 0.1 μg/ml) it was 15 ± 3%; in the assay on D54 glioma cells (D54, 1 μg/ml), 52 ± 6%; in the assay on D54 glioma cells (D54, 10 μg/ml), 85 ± 3%. Further, the “% Proliferation Inhibition” value came out at 12 ± 7% in the assay with U87 glioma cells (U87, 0.1 μg/ml); 45 ± 7% in the assay with U87 glioma cells (U87, 1 μg/ml); 82 ± 8% with U87 glioma cells (U87, 10 μg/ml); 0 ± 5% in the assay on 293 Kidney fibroblasts (0.1 μg/ml); 0 ± 6% in the assay on 293 Kidney fibroblasts (1 μg/ml); 0 ± 7% with 293 Kidney fibroblasts (10 μg/ml). The “% Proliferation Inhibition” value in assay [3] (MDA231, 0.1 μg/ml) is listed as 33 ± 8%; in [3] (MDA231, 1 μg/ml), 63 ± 12%; in assay [3] (MDA231, 10 μg/ml) it was 86 ± 10%; in [4] (Calu 6, 0.1 μg/ml) it was 14 ± 2%; in assay [4] (Calu 6, 1 μg/ml), 31 ± 5%; in [4] (Calu 6, 10 μg/ml), 60 ± 5%. In addition, the “binding range to GRP78” value in the assay with GRP78 is listed as “pM range”. In addition, the “inhibition of tumor cell proliferation” value with panel of tumor cells is on record as “potent dose response inhibition”. In addition, in the assay with panel of tumor cells, the “potency of inhibition of tumor cell proliferation relative to K5” value is “several fold more potent”. Besides, the “IL-10 expression of tolerogenic dendritic cells” value in assay [2] (100 nM, FIG. 10) was “elimination of IL-10 expression”. The “maturity marker CD86 on DCs exposed to GRP78/LPS” value in assay [2] was “completely reverses; also recorded: increases in the maturity marker CD86”; in assay [2] (setting [8]), “increases in the maturity marker CD86”. The entries for the “activity for reversing the tolerogenic phenotype of dendritic cells induced by GRP78” value in assay [2] and in [2] (setting [8]) were “potent nM activity” and “reverses”, respectively. For the same molecule, the “potency in blocking B7H3 on DCs exposed to GRP78, relative to K5” value in assay [2] is “at least 65 times”; in assay [2] (setting [8]), “more potent”. Besides, in [2] (increasing concentrations, FIGS. 11, 12), the “percentage of B7H4+ marker on GRP78 treated DCs” value is given as “decreasing percentages”.

For `COc1cccc2c1C(=O)c1c(O)c3c(c(O)c1C2=O)C[C@@](O)(C(=O)CO)C[C@@H]3O[C@H]1C[C@H](N)[C@H](O)[C@H](C)O1` [Doxorubicin], the IC50 was determined as 7 nM in assay [5], 7 nM in [6] and 2440 nM in assay [7].

B1: unfolded K5: unfolded K5(3-89 Active Zone)frag SEQ ID NO:1 kringle, control (protein)
chain: SEEDCMFGNGKGYRGKRATTVTGTPCQDWAAQEPHRHSIFTPETNPRAGLEKNYCRNPDGDVGGPWCYTTNPRKLYDYCDVPQCAAPKS
modifications: unfolded; Synthetic Peptide K5(3-89 Active Zone)
Take B1: the “blocking of immunoprecipitation of ROR1 using GRP78” value in the assay with ROR1 binding to GRP78 is given as “not”.
